These compounds were tested on HCMV engineered virus RC256 (assay: microbe, parasite or virus in culture). Settings: Human betaherpesvirus 5, Fibroblast, read-out: Antiviral Activity RC256, first value (EC50).
Assay type: cell-based, human cytomegalovirus

| SMILES | EC50 |
| --- | --- |
| COc1ccc(C[C@H](Nc2nc3ccc(CNC(=O)CCc4cccnc4)c(C)c3c(=O)o2)C(=O)N(C)Cc2ccccc2)cc1 [Example 9d, N-[[2-[[1S-[(4-Methoxyphenyl)methyl]-2-[methyl(phenylmethyl)amino]-2-oxoethyl]amino]-5-methyl-4-oxo-4H-3,1-benzoxazin-6-yl]methyl]pyridine-3-propanamide] | 41 µM |
| Cc1cccc2nc(N[C@@H](Cc3ccc(O)cc3)C(=O)OC(C)(C)C)oc(=O)c12 [Example 1l, N-(5-Methyl-4-oxo-4H-3,1-benzoxazin-2-yl)-L-tyrosine, 1,1-dimethylethyl ester] | 35 µM |
| COc1ccc(C[C@H](Nc2nc3ccc(N(C)C)c(C)c3c(=O)o2)C(=O)N(C)Cc2ccccc2)cc1 [Example 16a, αS-[[6-(Dimethylamino)-5-methyl-4-oxo-4H-3,1-benzoxazin-2-yl]amino]-4-methoxy-N-methyl-N-(phenylmethyl)benzenepropanamide] | 15 µM |
| Cc1cccc2nc(N[C@@H](CCCCNC(=O)OCc3ccccc3)C(=O)OC(C)(C)C)oc(=O)c12 [Example 1i, N^α-(5-Methyl-4-oxo-4H-3,1-benzoxazin-2-yl)-N^ε-[(phenylmethoxy)carbonyl)-L-lysine, 1,1-dimethylethyl ester] | 9 µM |
| COC(=O)C(C)(C)Nc1nc2ccc(NC(=O)OC(C)(C)C)c(C)c2c(=O)o1 [Example 6w, N-[6-[[(1,1-Dimethylethoxy)carbonyl]amino]-5-methyl-4-oxo-4H-3,1-benzoxazin-2-yl]-2-aminoisobutyric acid, methyl ester] | > 100 µM |
| COc1ccc(C[C@H](Nc2nc3ccc(CNC(=O)OCc4cccnc4)c(C)c3c(=O)o2)C(=O)N(C)Cc2ccccc2)cc1 [Example 18, 3-Pyridinylmethyl[[2-[[1S-[(4-methoxyphenyl)methyl]-2-[methyl(phenylmethyl)amino]-2-oxoethyl]amino]-5-methyl-4-oxo-4H-3,1-benzoxazin-6-yl]methyl]carbamate] | 14 µM |
| Cc1cccc2nc(N[C@H](C)c3ccccc3)oc(=O)c12 [Example 3c, 5-Methyl-2-[[(1R)-1-phenylethyl]amino]-4H-3,1-benzoxazin-4-one] | 17 µM |
| Cc1c(NC(=O)N[C@H](C)c2ccccc2)ccc2nc(N[C@H](C)c3ccccc3)oc(=O)c12 [Example 12c, ^6-[[[[(1R)-Phenylethyl]amino]carbonyl]amino]-5-methyl-2-[[(1R)-phenylethyl]amino]-4H-3,1-benzoxazin-4-one] | 17 µM |
| Cc1c(CNC(=O)OC(C)(C)C)ccc2nc(N[C@@H](Cc3ccccc3)C(=O)N(C)Cc3cccnc3)oc(=O)c12 [Example 7s, 1,1-Dimethylethyl[[5-methyl-2-[[2-[methyl[(3-pyridinyl)methyl]amino]-1S-(phenylmethyl)-2-oxoethyl]amino]4-oxo-4H-3,1-benzoxazin-6-yl]methyl]carbamate] | 16 µM |
| COC(=O)[C@H](Cc1ccccc1)Nc1nc2ccc(NS(=O)(=O)c3ccccc3)c(C)c2c(=O)o1 [Example 13] | 60 µM |
| Cc1c(CNC(=O)C=Cc2ccccc2)ccc2nc(N[C@@H](Cc3ccccc3)C(=O)N(C)Cc3ccccc3)oc(=O)c12 [Example 9v, N-Methyl-αS-[[5-methyl-6-[[(1-oxo-3-phenyl-2-propenyl)amino]methyl]-4-oxo-4H-3,1-benzoxazin-2-yl]amino]-N-(phenylmethyl)benzenepropanamide] | 26 µM |
| COc1ccc(C[C@H](Nc2nc3cccc(OC)c3c(=O)o2)C(=O)N(C)Cc2ccccc2)cc1 [Example 1u, N-[5-Methoxy-4-oxo-4H-3,1-benzoxazin-2-yl]-O-methyl-L-tyrosine, N-methyl-N-phenylmethylamide] | 14 µM |
| COC(=O)[C@@H](C)Nc1nc2cccc(C)c2c(=O)o1 [Example 1c, N-(5-Methyl-4-oxo-4H-3,1-benzoxazin-2-yl)-D-alanine, methyl ester] | > 100 µM |
| COc1ccc(C[C@H](Nc2nc3ccc(CNC(=O)NCc4ccncc4)c(C)c3c(=O)o2)C(=O)N(C)Cc2ccccc2)cc1 [Example 9e, 4-Methoxy-N-methyl-αS-[[5-methyl-4-oxo-6-[[[[[(4-pyridinyl)methyl]amino]carbonyl]amino]methyl]-4H-3,1-benzoxazin-2-yl]amino]-N-(phenylmethyl)benzenepropanamide] | 35 µM |
| COc1ccc(C[C@H](Nc2nc3ccc(CNC(=O)CCc4ccncc4)c(C)c3c(=O)o2)C(=O)N(C)Cc2ccccc2)cc1 [Example 9f, N-[[2-[[1S-[(4-Methoxyphenyl)methyl]-2-[methyl(phenylmethyl)amino]-2-oxoethyl]amino]-5-methyl-4-oxo-4H-3,1-benzoxazin-6-yl]methyl]pyridine-4-propanamide] | 40 µM |
| Cc1c(CNC(=O)CCc2ccccc2)ccc2nc(N[C@@H](Cc3ccccc3)C(=O)N(C)Cc3ccccc3)oc(=O)c12 [Example 9w, N-Methyl-αS-[[5-methyl-6-[[(1-oxo-3-phenylpropyl)amino]-methyl]-4-oxo-4H-3,1-benzoxazin-2-yl]amino]-N-(phenylmethyl)benzenepropanamide] | 13 µM |

| SMILES | EC50 |
| --- | --- |
| Cc1c(CNC(=O)NC(C)(C)C)ccc2nc(N[C@@H](Cc3ccccc3)C(=O)N(C)Cc3ccccc3)oc(=O)c12 [Example 12e, αS-[[6-[[[[(1,1-Dimethylethyl)amino]carbonyl]amino]methyl]-5-methyl-4-oxo-4H-3,1-benzoxazin-2-yl]amino]-N-methyl-N-(phenylmethyl)benzenepropanamide] | 14 µM |
| COc1ccc(C[C@H](Nc2nc3ccc(NC(=O)OC(C)(C)C)c(C)c3c(=O)o2)C(=O)NCc2ccccn2)cc1 [Example 6gg, 1,1-Dimethylethyl[2-[[1S-[(4-methoxphenyl)methyl]-2-oxo-2-[[(2-pyridinyl)methyl]amino]ethyl]amino]-5-methyl-4-oxo-4H-3,1-benzoxazin-6-yl]carbamate] | 6.5 µM |
| COc1ccc(C[C@H](Nc2nc3ccc(NC(=O)OC(C)(C)C)c(C)c3c(=O)o2)C(=O)N2CCOCC2)cc1 [Example 6i, N-[6-[[(1,1-Dimethylethoxy)carbonyl]amino]-5-methyl-4-oxo-4H-3,1-benzoxazin-2-yl]-O-methyl-L-tyrosine, morpholineamide] | 48 µM |
| COc1ccc(C[C@H](Nc2nc3ccc(CNC(=O)OCCN4CCOCC4)c(C)c3c(=O)o2)C(=O)N(C)Cc2ccccc2)cc1 [Example 18b, 2-(4-Morpholinyl)ethyl[[2-[[1S-[(4-methoxyphenyl)methyl]-2-[methyl(phenylmethyl)amino]-2-oxoethyl]amino]-5-methyl-4-oxo-3,1-benzoxazin-6-yl]methyl]carbamate] | 12 µM |
| CCN(CC)C(=O)[C@H](Cc1ccccc1)Nc1nc2ccc(NC(=O)OC(C)(C)C)c(C)c2c(=O)o1 [Example 6ee, 1,1-Dimethylethyl[2-[[2-(diethylamino)-2-oxo-1S-(phenylmethyl)ethyl]amino]-5-methyl-4-oxo-4H-3,1-benzoxazin-6-yl]carbamate] | 26 µM |
| COc1ccc(C[C@H](Nc2nc3ccc(NC(=O)Cc4cccs4)c(C)c3c(=O)o2)C(=O)N2CCCC2)cc1 [Example 11o, N-[2-[[1S-[(4-Methoxyphenyl)methyl]-2-oxo-2-(1-pyrrolidinyl)ethyl]amino]-5-methyl-4-oxo-4H-3,1-benzoxazin-6-yl]thiophene-2-acetamide] | 59 µM |
| COc1ccc(C[C@H](Nc2nc3ccc(N)c(C)c3c(=O)o2)C(=O)N(C)Cc2ccccc2)cc1 [Example 8h, αS-[(6-amino-5-methyl-4-oxo-4H-3,1-benzoxazin-2-yl)amino]-N-methyl-4-methoxy-N-(phenylmethyl)benzenepropanamide] | 100 µM |
| Cc1c(CNC(=O)OCCN(C)C)ccc2nc(N[C@@H](Cc3ccccc3)C(=O)N(C)Cc3ccccc3)oc(=O)c12 [Example 18g, 2-(Dimethylamino)ethyl[[5-methyl-2-[[2-[methyl(phenylmethyl)amino]-2-oxo-1S-(phenylmethyl)ethyl]amino]-4-oxo-4H-3,1-benzoxazin-6-yl]methyl]carbamate] | 13 µM |
| Cc1c(CNC(=O)OCc2ccccc2)ccc2nc(N[C@@H](Cc3ccccc3)C(=O)N(C)Cc3cccnc3)oc(=O)c12 [Example 9z] | 10 µM |
| COC(=O)[C@H](Cc1ccccc1)Nc1nc2ccc(NC(=O)Cc3cccs3)c(C)c2c(=O)o1 [Example 11g, N-[6-[[(2-Thienylmethyl)carbonyl]amino]-5-methyl-4-oxo-4H-3,1-benzoxazin-2-yl]-L-phenylalanine, methyl ester] | 10 µM |
| Cc1c(NC(=O)OC(C)(C)C)ccc2nc(N[C@@H](Cc3ccc(I)cc3)C(=O)N(C)C)oc(=O)c12 [Example 6cc, 1,1-Dimethylethyl[2-[[2-(dimethylamino)-1S-[(4-iodophenyl)methyl]-2-oxoethyl]amino]-5-methyl-4-oxo-4H-3,1-benzoxazin-6-yl]carbamate] | 40 µM |
| COC(=O)[C@H](Cc1ccc(I)cc1)Nc1nc2ccc(NC(=O)OC(C)(C)C)c(C)c2c(=O)o1 [Example 6t, N-[6-[[(1,1-Dimethylethoxy)carbonyl]amino]-5-methyl-4-oxo-4H-3,1-benzoxazin-2-yl]-4-iodo-L-phenylalanine, methyl ester] | 17 µM |
| Cc1cccc2nc(N[C@@H](C)C(=O)OC(C)(C)C)oc(=O)c12 [Example 1, N-(5-Methyl-4-oxo-4H-3,1-benzoxazin-2-yl)-L-alanine, tert-butyl Ester] | 100 µM |
| COc1ccc(C[C@H](Nc2nc3cccc(C)c3c(=O)o2)C(=O)N(C)Cc2ccccc2)cc1 [Example 1s, αS-[(5-Methyl-4-oxo-4H-3,1-benzoxazin-2-yl)amino]-4-methoxy-N-methyl-N-(phenylmethyl)benzenepropanamide] | 7 µM |
| COC(=O)[C@H](Cc1ccccc1)Nc1nc2cccc(C)c2c(=O)o1 [Example 1k, N-(5-Methyl-4-oxo-4H-3,1-benzoxazin-2-yl)-L-phenylalanine, methyl ester] | > 100 µM |
| Cc1c(NC(=O)OC(C)(C)C)ccc2nc(N[C@@H](Cc3c[nH]c4ccccc34)C(=O)N(C)C)oc(=O)c12 [Example 6o, N-[6-[[(1,1-Dimethylethoxy)carbonyl]amino]-5-methyl-4-oxo-4H-3,1-benzoxazin-2-yl]-L-tryptophan, dimethylamide] | 59 µM |

— patent publication US6683077B2, “2-Amino-benzoxazinones for the treatment of viral infections” (G.D. Searle & Co., priority 1996, dated 2004)
